According to US9505795B2, “Method for producing scyllo-inositol” (Asahi Kasei Chemicals Corporation, priority 2012, dated 2016):

Legend:
amyloid β protein = details: reported in Non-patent Reference 1; cited from earlier work
[1] = water solubility compared with scyllo-inositol; type: physicochemical; details: 25° C., W/V; ratio to scyllo-inositol
Source text: Since the scyllo-inositol derivative of the present invention can be produced and treated at high concentration in an aqueous solution, producing scyllo-inositol by obtaining the scyllo-inositol derivative of the present invention and treating it enzymatically has many advantages. Such methods are therefore one preferred method of utilizing the scyllo-inositol derivative of the present invention.

Row | Compound | effect on amyloid β protein aggregation (amyloid β protein) | water solubility relative to the original scyllo-inositol [1]
1 | O[C@H]1[C@H](O)[C@@H](O)[C@H](O)[C@@H](O)[C@@H]1O [scyllo-inositol, cis-1,3,5-trans-2,4,6-cyclohexanehexyl] | inhibitory effect | –
2 | OC[C@@H]1O[C@@H](O[C@H]2[C@H](O)[C@H](O)[C@H](O)[C@@H](O)[C@H]2O)[C@@H](O)[C@@H](O)[C@@H]1O [scyllo-inositol derivative, 1-O-β-D-glucopyranosyl-scyllo-inositol] | – | at least four
